Reference: patent US6518243B1, “Desleucyl glycopeptide antibiotics and methods of making same” (Trustees of Princeton University, priority 1999, dated 2003)

What was measured:
[1] = system: E. faceium (ATCC 49624); experiment: Zone of inhibition screen, 96 well agar array format;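 note: score 3 means fourfold and score 4 sixteenfold the reference zone size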; assay type: cell-based, E. faecium; details: zone of inhibition relative to 1 mg/ml stock solution of p-chlorobiphenylvancomycin
Summary of the method: (§1)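 Each compound was tested for antibacterial activity against a shared bacterial panel, with screening carried out on agar in a 96-well array.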

[2] = system: E. faecalis (CL 4877); experiment: as above; assay type: cell-based; design: scale not given here; details: zone of inhibition relative to 1 mg/ml stock solution of p-chlorobiphenylvancomycin
Summary of the method: as §1

[3] = system: S. aureus (ATCC 29213); experiment: as above; assay type: cell-based; design: scale not given here; details: zone of inhibition relative to 1 mg/ml stock solution of p-chlorobiphenylvancomycin
Summary of the method: as §1

[4] = system: E. faecalis (ATCC 292121); experiment: as above; assay type: cell-based; details: zone of inhibition relative to 1 mg/ml stock solution of p-chlorobiphenylvancomycin
Method: The antibacterial activity of each of the compounds against the bacterial strains E. faceium (ATCC 49624), S. epidermidis (ATCC 12228), S. aureus (ATCC 29213), E. faecalis (CL 4877) and E. faecalis (ATCC 292121) was tested. Each of the compounds was screened in a 96 will agar array format.

[5] = system: E. faecalis ATCC 29212; experiment: MIC determination in BHI media, OD600; assay type: cell-based; details: BHI + 0.1% casamino acids, 18 hours at 37° C., ≧90% OD600 inhibition
Summary of the method: (§2)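 Log-phase bacteria were diluted to about 5×10^5 CFU/ml and exposed to test compounds serially diluted in DMSO. Following 18 hours at 37° C, growth was read by plate absorbance to assign the MIC.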

[6] = system: E. faecium ATCC 49624; experiment: MIC determination in BHI media, OD600; assay type: cell-based; details: BHI + 0.1% casamino acids, 18 hours at 37° C., ≧90% OD600 inhibition
Summary of the method: as §2

[7] = system: S aureus ATCC 29213; experiment: MIC determination in BHI media, OD600; assay type: cell-based; details: BHI + 0.1% casamino acids, 18 hours at 37° C., ≧90% OD600 inhibition
Summary of the method: as §2

[8] = system: S. Aureus ATCC 33591; experiment: MIC determination in BHI media, OD600; assay type: cell-based; details: BHI + 0.1% casamino acids, 18 hours at 37° C., ≧90% OD600 inhibition
Summary of the method: as §2

[9] = system: S. epidermidis (ATCC 12228); experiment: Zone of inhibition screen, 96 well agar array format; assay type: cell-based; design: scale not given here; details: zone of inhibition relative to 1 mg/ml stock solution of p-chlorobiphenylvancomycin
Summary of the method: as §1

[10] = system: E. Faecalis CL 4877; experiment: MIC determination in BHI media, OD600; assay type: cell-based; details: BHI + 0.1% casamino acids, 18 hours at 37° C., ≧90% OD600 inhibition
Summary of the method: as §2

[11] = system: E. faecium CL 4931; experiment: MIC determination in BHI media, OD600; assay type: cell-based; details: BHI + 0.1% casamino acids, 18 hours at 37° C., ≧90% OD600 inhibition
Summary of the method: as §2
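Throughout, for zone score, E. faecalis ATCC 29212: score 3 means fourfold and score 4 sixteenfold the reference zone size.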

| SMILES | zone score, E. faecium ATCC 49624 [1] | zone score, E. faecalis CL 4877 [2] | zone score, S. aureus ATCC 29213 [3] | zone score, E. faecalis ATCC 29212 [4] | MIC E. faecalis ATCC 29212 [5] [µg/mL] | MIC E. faecium ATCC 49624 [6] [µg/mL] | MIC S. aureus ATCC 29213 [7] [µg/mL] | MIC S. aureus ATCC 33591 [8] [µg/mL] | zone score, S. epidermidis ATCC 12228 [9] | MIC E. faecalis CL 4877 [10] [µg/mL] | MIC E. faecium CL 4931 [11] [µg/mL] |
| --- | --- | --- | --- | --- | --- | --- | --- | --- | --- | --- | --- |
| C[C@H]1O[C@H](O[C@H]2[C@H](Oc3c4cc5cc3Oc3ccc(cc3Cl)[C@@H](O)[C@@H](NC(=O)[C@H](N)Cc3c[nH]c6ccccc36)C(=O)N[C@@H](CC(N)=O)C(=O)N[C@H]5C(=O)N[C@H]3C(=O)N[C@H](C(=O)N[C@@H](C(=O)O)c5cc(O)cc(O)c5-c5cc3ccc5O)[C@H](O)c3ccc(c(Cl)c3)O4)O[C@H](CO)[C@@H](O)[C@@H]2O)C[C@@](C)(NCc2ccc(-c3ccc(Cl)cc3)cc2)[C@H]1O [Compound 25] | 2 | 2 | 2 | 2 | 0.39 | 0.25 | 0.25 | 0.25 | – | – | – |
| CC1OC(OC2C(Oc3c4cc5cc3Oc3ccc(cc3Cl)C(O)C3NC(=O)C(NC(=O)C5NC(=O)C(CC(N)=O)NC(=O)C(NC(=O)C(N)CCCCNC(=O)CCCCC5SCC6NC(=O)NC65)C(O)c5ccc(c(Cl)c5)O4)c4ccc(O)c(c4)-c4c(O)cc(O)cc4C(C(=O)O)NC3=O)OC(CO)C(O)C2O)CC(C)(NCc2ccc(-c3ccc(Cl)cc3)cc2)C1O (stereo not drawn) [Compound 75] | 2 | 2 | – | 2 | – | 0.39 | – | – | 2 | 25 | 25 |
